# From patent publication US8802678B2, “Carbonylated (aza) cyclohexanes as dopamine D3 receptor ligands” (Bioprojet, priority 2006, dated 2014)
row,SMILES,melting point [°C]
1,"COCC(=O)N[C@H]1CC[C@H](CCN2CCN(c3ccccc3C#N)CC2)CC1 [Example 58, N-(4-{2-[4-(2-Cyanophenyl)-piperazin-1-yl]ethyl}cyclohexyl)-2-methoxyacetamide]",113
2,"N#CCC(=O)N[C@H]1CC[C@H](CCN2CCN(c3cccc(C(F)F)c3)CC2)CC1 [Example 354, 2-Cyano-N-(4-{2-[4-(3-difluoromethylphenyl)piperazin-1-yl]ethyl}cyclohexyl)acetamide]",185
3,"N#CCC(=O)N[C@H]1CC[C@H](CCN2CCN(c3ccc(F)c(F)c3)CC2)CC1 [Example 325, 2-Cyano-N-(4-{2-[4-(3,4-difluorophenyl)piperazin-1-yl]ethyl}cyclohexyl)acetamide]",197
4,"Cc1ccc(N2CCN(CC[C@H]3CC[C@H](NC(=O)C4=CCCC4)CC3)CC2)cc1 [Example 475, Cyclopent-1-enecarboxylic acid {4-[2-(4-p-tolylpiperazin-1-yl)ethyl]cyclohexyl} amide]",227
5,"COc1ccccc1N1CCN(CC[C@H]2CC[C@H](NC(=O)C3CC=CC3)CC2)CC1 [Example 372, Cyclopent-3-enecarboxylic acid (4-{2-[4-(2-methoxyphenyl)piperazin-1-yl]ethyl}cyclohexyl) amide]",202
6,CC(=O)CN1CCC(CCN2CCN(c3cc(C(C)(C)C)nc(C(C)(C)C)n3)CC2)CC1.Cl.Cl,310
7,"N#CCCCC(=O)N[C@H]1CC[C@H](CCN2CCN(c3cccc(C(F)F)c3)CC2)CC1 [Example 364, 4-Cyano-N-(4-{2-[4-(3-difluoromethylphenyl)piperazin-1-yl]ethyl}cyclohexyl)butanamide]",155
8,"N#CCC(=O)N[C@H]1CC[C@H](CCN2CCN(c3cc(Cl)ccc3Cl)CC2)CC1 [Example 228, 2-Cyano-N-(4-{2-[4-(2,5-dichlorophenyl)piperazin-1-yl]ethyl}cyclohexyl)acetamide]",182 to 184
9,"CCC(O)c1cccc(N2CCN(CC[C@H]3CC[C@H](NC(=O)CC#N)CC3)CC2)c1 (stereo partly shown) [Example 566, 2-cyano-N-[4-(2-{4-[3-(1-hydroxypropyl)phenyl]piperazin-1-yl}ethyl)cyclohexyl]acetamide]",157
10,N#CCC(=O)N[C@H]1CC[C@H](CCN2CC=C(c3ccc(C(F)(F)F)cc3)CC2)CC1,217
11,"COc1cc(N2CCN(CC[C@H]3CC[C@H](NC(=O)CC#N)CC3)CC2)cc(C(F)(F)F)c1 [Example 160, 2-Cyano-N-(4-{2-[4-(3-methoxy-5-trifluoromethylphenyl)piperazin-1-yl]ethyl}cyclohexyl)acetamide]",183 to 184
12,"Cc1ccc(C)c(N2CCN(CC[C@H]3CC[C@H](NC(=O)CCCC#N)CC3)CC2)c1 [Example 413, 4-Cyano-N-(4-{2-[4-(2,5-dimethylphenyl)piperazin-1-yl]ethyl}cyclohexyl)butanamide]",158
13,"COCCCC(=O)N[C@H]1CC[C@H](CCN2CCN(c3ccc(C)c(C)c3)CC2)CC1 [Example 506, N-(4-{2-[4-(3,4-Dimethylphenyl)piperazin-1-yl]ethyl}cyclohexyl)-4-methoxybutanamide]",161
14,"N#CCCCC(=O)N[C@H]1CC[C@H](CCN2CCN(c3ccc(F)c(C(F)(F)F)c3)CC2)CC1 [Example 430, 4-Cyano-N-(4-{2-[4-(4-fluoro-3-trifluoromethylphenyl)piperazin-1-yl]ethyl}cyclohexyl)butanamide]",149
15,"COCC(=O)N[C@H]1CC[C@H](CCN2CCC(c3cccc(C)c3C#N)CC2)CC1 [Example 55, N-(4-{2-[4-(2-Cyano-3-methylphenyl)piperidin-1-yl]ethyl}cyclohexyl)-2-methoxyacetamide]",141
16,"COCCCC(=O)N[C@H]1CC[C@H](CCN2CCN(c3cccc(F)c3C)CC2)CC1 [Example 689, N-(4-{2-[4-(3-Fluoro-2-methylphenyl)piperazin-1-yl]ethyl}cyclohexyl)-4-methoxybutanamide]",172

row,SMILES,melting point [°C]
1,CC(=O)CN1CCC(CCN2CCN(c3ccc4c(c3)CCCC4)CC2)CC1 [Example 576],75
2,"N#CCC(=O)N[C@H]1CC[C@@H](CCN2CCN(c3ccc(C(F)(F)F)cc3)CC2)CC1 [Example 613, 2-Cyano-N-(4-{2-[4-(4-trifluoromethylphenyl)piperazin-1-yl]ethyl}cyclohexyl)acetamide]",156
3,"COc1ccc(C(F)(F)F)cc1N1CCN(CC[C@H]2CC[C@H](NC(=O)CCCC#N)CC2)CC1 [Example 405, 4-Cyano-N-(4-{2-[4-(2-methoxy-5-trifluoromethylphenyl)piperazin-1-yl]ethyl}cyclohexyl)butanamide]",136
4,"Cc1cccc(N2CCN(CC[C@H]3CC[C@H](NC(=O)CC(F)(F)F)CC3)CC2)c1C#N [Example 115, N-(4-{2-[4-(2-Cyano-3-methylphenyl)piperazin-1-yl]ethyl}cyclohexyl)-3,3,3-trifluoropropanamide]",207
5,"CC(=O)CN1CCC(CCN2CCN(c3cccc(Cl)c3Cl)CC2)CC1 [Example 21, 1-(4-{2-[4-(2,3-Dichlorophenyl)piperazin-1-yl]ethyl}piperidin-1-yl)propan-2-one]",87
6,CC(=O)CN1CCC(CCN2CC=C(c3cccc(C)c3C)CC2)CC1.Cl.Cl,310
7,"Cc1ccc(F)c(N2CCN(CC[C@H]3CC[C@H](NC(=O)CC#N)CC3)CC2)c1 [Example 192, 2-Cyano-N-(4-{2-[4-(2-fluoro-5-methylphenyl)piperazin-1-yl]ethyl}cyclohexyl)acetamide]",178
8,"COCCCC(=O)N[C@H]1CC[C@H](CCN2CCN(c3ccc(F)c(F)c3F)CC2)CC1 [Example 652, 4-Methoxy-N-(4-{2-[4-(2,3,4-trifluorophenyl)piperazin-1-yl]ethyl}cyclohexyl)butanamide]",203
9,"CC(=O)NCC(=O)N[C@H]1CC[C@H](CCN2CCN(c3cccc(C(F)(F)F)c3)CC2)CC1 [Example 105, 2-Acetylamino-N-(4-{2-[4-(3-trifluoromethylphenyl)piperazin-1-yl]ethyl}cyclohexyl)acetamide]",187
10,CC(=O)CN1CCC(CCN2CCN(c3ccccc3C#N)CC2)CC1.Cl.Cl,290
11,"CCOCC(=O)N[C@H]1CC[C@H](CCN2CCN(c3ccc(F)cc3F)CC2)CC1 [Example 503, N-(4-{2-[4-(2,4-Difluorophenyl)piperazin-1-yl]ethyl}cyclohexyl)-2-ethoxyacetamide]",130
12,"Cc1cc(C)cc(N2CCN(CC[C@H]3CC[C@H](NC(=O)CCC#N)CC3)CC2)c1 [Example 716, 3-Cyano-N-(4-{2-[4-(3,5-dimethylphenyl)piperazin-1-yl]ethyl}cyclohexyl)propanamide]",175
13,CC(=O)CN1CCC(CCN2CC=C(c3cccc(C(F)(F)F)c3)CC2)CC1.Cl.Cl,268
14,"N#CCCCC(=O)N[C@H]1CC[C@H](CCN2CCN(c3cccc(Cl)c3F)CC2)CC1 [Example 205, N-(4-{2-[4-(3-Chloro-2-fluorophenyl)piperazin-1-yl]ethyl}cyclohexyl)-4-cyanobutanamide]",186
15,CC(=O)CN1CCC(CCN2CCN(c3cccc(C#N)c3)CC2)CC1.Cl.Cl,250
